By IC50 is commonly meant the point on the concentration scale where inhibition reaches its midpoint.

The source of these data is patent publication US6608069B1, “Phenyl xanthine derivatives” (SmithKline Beecham Corporation, priority 1998, dated 2003).

Each structure is given as a SMILES string.

The first assay concerns cytokine-stimulated human umbilical vein endothelial cells. Briefly: Cell Adhesion Assay: adherence of fluorescently-labelled leukocytes to endothelial cell monolayers. In kind it is cell-based. The note with it: Homo sapiens; inhibition of cytokine-stimulated adhesion minus basal adhesion; calcein-AM labelled leukocytes on HUVEC monolayers. The method, then:
The antiadhesion activity of compounds of the invention was determined using a modification of the previously described method, Jurgensen, C. H. et. al., J. Immunol. 144: 653-661. The adhesiveness of cytokine-stimulated human umbilical vein endothelial cells was assessed by quantitating the adherence of fluorescently-labelled (calcein-AM, Molecular Probes, Eugene, Oreg.) leukocytes to endothelial cell monolayers. Activity was determined by calculating inhibition of cytokine-stimulated adhesion minus the basal adhesion (unstimulated).
For the compound `COCCOCCOCCOCCOCCOCCOCCOCCOCCOCc1cccc(-c2nc3c([nH]2)c(=O)n(CC2CCCCC2)c(=O)n3CC2CCCCC2)c1` [Example 110, 1,3-Bis(cyclohexylmethyl)-8-[3-(2,5,8,11,14,17,20,23,26,29-decaoxatriacont-1-yl)phenyl]-3,7-dihydro-1H-purine-2,6-dione], the IC50 was 29 ± 11 nM.

Still in this assay, the particulars now being: inhibition of cytokine-stimulated adhesion minus basal adhesion; calcein-AM labelled leukocytes on HUVEC monolayers.
For `COCCOCCOCCOCCOCCOCCOCCOCCOCCNCc1ccc(-c2nc3c(=O)n(CC4CCCCC4)c(=O)n(CC4CCCCC4)c3[nH]2)cc1` [Example 108, 4-[1,3-Bis(cyclohexylmethyl)-1,2,3,6-tetrahydro-2,6-dioxo-9H-purin-8-yl]benzylamine N-Nonaethylene Glycol Methyl Ether], the IC50 is 300 ± 82 nM.

In the case of `COCCOCCOCCOCCOCCOCCOCCOCCOCCOC(=O)/C=C/c1cccc(-c2nc3c(=O)n(Cc4ccccc4)c(=O)n(Cc4ccccc4)c3[nH]2)c1` [Example 46, (E)-3-(1,3-bis(benzyl)-1,2,3,6-tetrahydro-2,6-dioxo-9H-purin-8-yl)cinnamic Acid Nonaethylene Glycol Methyl Ether Ester], the IC50 was 890 ± 420 nM.

On to `COCCOCCOCCOCCOCCOCCOCCOCCOCCNC(=O)/C=C/c1ccc(-c2nc3c(c(=O)n(CC4CCCCC4)c(=O)n3CC3CCCCC3)n2C)cc1` [Example 91, (E)-4-(1,3-Bis(cyclohexylmethyl)-2,3,6,7-tetrahydro-2,6-dioxo-7-methyl-1H-purin-8-yl)cinnamic Acid Nonaethylene Glycol Methyl Ether Amide], for which the IC50 was 60 ± 29 nM.

On to `COCCOCCOCCOCCOCCOCCOCCOCCOCCOC(=O)/C=C/c1ccc(-c2nc3c(=O)n(C4CCCCC4)c(=O)n(C4CCCCC4)c3[nH]2)cc1` [Example 66, (E)-4-[1,3-Bis(cyclohexyl)-1,2,3,6-tetrahydro-2,6-dioxo-9H-purin-8-yl]cinnamic Acid Nonaethylene Glycol Methyl Ether Ester], for which the IC50 was 230 ± 100 nM.

On to `COCCOCCOCCOCCOCCOCCOCCOCCOCCOC(=O)c1ccc(-c2nc3c(c(=O)n(CC4CCCCC4)c(=O)n3CC3CCCCC3)n2Cc2ccccc2)cc1` [Example 88, 4-(1,3-Bis(cyclohexylmethyl)-2,3,6,7-tetrahydro-2,6-dioxo-7-benzyl-1H-purin-8-yl)benzoic Acid Nonaethylene Glycol Methyl Ether Ester], for which the IC50 was 49 ± 19 nM.

Turning to `COCCOCCOCCOCCOCCOCCOCCOCCOCCNC(=O)/C=C/c1ccc(-c2nc3c(=O)n(CC4CCCCC4)c(=O)n(CC4CCCCC4)c3[nH]2)cc1` [Example 69, (E)-4-(1,3-Bis(cyclohexylmethyl)-1,2,3,6-tetrahydro-2,6-dioxo-9H-purin-8-yl)cinnamic Acid Nonaethylene Glycol Methyl Ether Amide], the IC50 is 62 ± 27 nM.

Regarding `CCCn1c(=O)c2nc(-c3ccc(/C=C/C(=O)OCCOCCOCCOCCOCCOCCOCCOCCOCCOC)cc3)[nH]c2n(CCC)c1=O` [Example 37, (E)-4-(1,3-bis(propyl)-1,2,3,6-tetrahydro-2,6-dioxo-9H-purin-8-yl)cinnamic Acid Nonaethylene Glycol Methyl Ether Ester], the IC50 was 98 ± 33 nM.

With `COCCOCCOCCOCCOCCOCCOCCOCCOCCOC(=O)/C=C/c1ccc(-c2nc3c(=O)n(CC4CCCCC4)c(=O)n(C)c3[nH]2)cc1` [Example 56, (E)-4-((1-cyclohexylmethyl-3-methyl)-1,2,3,6-tetrahydro-2,6-dioxo-9H-purin-8-yl)cinnamic Acid Nonaethylene Glycol Methyl Ether Ester], the IC50 is 160 ± 70 nM.

For `CCCn1c(=O)c2nc(-c3cccc(/C=C/C(=O)OCCOCCOCCOCCOCCOCCOCCOCCOCCOC)c3)[nH]c2n(CCC)c1=O` [Example 60, (E)-3-(1,3-bis(propyl)-1,2,3,6-tetrahydro-2,6-dioxo-9H-purin-8-yl)cinnamic Acid Nonaethylene Glycol Methyl Ether Ester], the IC50 is above 1000 nM.
